The record followed here is patent US5679678A, “Thienithiazine derivatives” (Chemisch Pharmazeutische Forschungsgesellschaft m.b.H., priority 1991, dated 1997).

A word on the IC50: it is the midpoint of a concentration-inhibition curve.

One assay has as its system cyclooxygenase. Description: Formation of prostaglandin D2 by neutrophils (measure of cyclooxygenase activity), A23187 stimulated, RIA. Type of assay: cell-based, Sprague-Dawley rats. Particulars: rat peritoneal neutrophils (lambda-carageenan), 5 min preincubation at 37° C., A23187 2 μmol/l, read-out: IC50 PGD2. As for the experimental part: (§1) The formation of prostaglandin D2 by neutrophils was used as a measure of the cyclooxygenase activity, and the formation of leucotrien B4 as a measure of the 5-lipoxygenase activity.
(§2) Male Sprague-Dawley rats (250-300 g) received 1 mg of lambda-carageenan (dissolved in 0.5 ml of distilled water) injected intraperitoneally.
(§3) After 16 hours, the rats were sacrificed by exposure to diethyl ether. 15 ml of Hanks balanced salt solution (HBSS) were injected i.p., the neutrophils were harvested by aspiration (10 ml) and were centrifuged (5 min, 100 g, 4° C.), the supernatant solution was decanted, and the cells were resuspended in HBSS at 4° C. to a concentration of 5×10^6 cells/ml.
(§4) 400 μl of cell suspension (2×10^6 cells), […] of compound dissolved in DMSO and 49.5 μl of HBSS were incubated at 37° C. for 5 min. Then 50 μl of A23187 (2 μmol/1 final concentration) were added and subsequently the mixture was again incubated at 37° C. for 5 min.
(§5) The reaction was stopped by centrifugation at 10,000 g for 3 s, and the supernatant liquid was transferred into precooled plastic tubes and left in an ice bath for a maximum of 1 h before starting the radioimmunoassay measurement.
(§6) PGD2 and LTB4 were measured after dilution with HBSS using commercial RIA kits.
(§7) The comparison substance was 6-chloro-2-methyl-N-(2-pyridyl)-2H-thieno[2,3-e]-1,2-thiazine-3-carboxamide 1,1-dioxide ("LORNOXICAM", Compound A).

Another assay deals with T1, 5-lipoxygenase (Rattus norvegicus, UniProt P12527).
T1 construct: endogenous in cells; host or cells: peritoneal neutrophils of male Sprague-Dawley rats, elicited by i.p. carrageenan (16 h)
T1 sequence (P12527 1-673): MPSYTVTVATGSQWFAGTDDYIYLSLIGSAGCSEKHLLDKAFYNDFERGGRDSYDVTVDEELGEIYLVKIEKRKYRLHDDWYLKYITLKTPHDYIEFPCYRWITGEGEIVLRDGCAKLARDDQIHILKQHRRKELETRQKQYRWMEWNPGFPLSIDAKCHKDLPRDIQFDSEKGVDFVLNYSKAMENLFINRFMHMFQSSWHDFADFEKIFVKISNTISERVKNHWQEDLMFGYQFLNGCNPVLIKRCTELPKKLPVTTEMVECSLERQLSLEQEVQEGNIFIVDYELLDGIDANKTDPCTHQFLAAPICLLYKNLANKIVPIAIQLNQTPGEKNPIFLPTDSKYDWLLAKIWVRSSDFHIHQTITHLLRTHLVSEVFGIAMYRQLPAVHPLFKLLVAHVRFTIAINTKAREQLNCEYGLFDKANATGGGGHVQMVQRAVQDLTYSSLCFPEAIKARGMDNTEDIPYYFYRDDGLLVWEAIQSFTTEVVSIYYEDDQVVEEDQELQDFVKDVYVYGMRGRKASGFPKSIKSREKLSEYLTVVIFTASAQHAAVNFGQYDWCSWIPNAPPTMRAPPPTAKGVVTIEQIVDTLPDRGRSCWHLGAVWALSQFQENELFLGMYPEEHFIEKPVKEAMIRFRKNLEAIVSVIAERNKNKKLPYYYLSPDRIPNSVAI
The assay can be described thus: Formation of leucotrien B4 by neutrophils (measure of 5-lipoxygenase activity), A23187 stimulated, RIA. The class given is cell-based, Sprague-Dawley rats. Particulars: rat peritoneal neutrophils (lambda-carageenan), 5 min preincubation at 37° C., A23187 2 μmol/l, read-out: IC50 LTB4. As for the experimental part:
as §1, §2, §3, §4, §5, §6, §7

Turning to `CN1C(C(=O)Nc2ccccn2)=C(O)c2sc(Cl)cc2S1(=O)=O` [Compound A, reference compound], the IC50 in the assay on cyclooxygenase is 20 nM; on 5-lipoxygenase, over 10000 nM.
In the same order, the values of `CN1C(C(=O)Nc2nc(-c3ccc(Oc4ccc(F)cc4)o3)cs2)=C(O)c2sc(Cl)cc2S1(=O)=O` [Compound 4, 6-Chloro-N-{4-[5-(4-fluorophenoxy)-2-furanyl]-2-thiazolyl}-4-hydroxy-2-methyl-2H-thieno[2,3-e]-1,2-thiazine-3-carboxamide 1,1-dioxide] are 3400 nM and 470 nM.
The like results for `CN1C(C(=O)Nc2nccs2)=C(O)c2sc(Cl)cc2S1(=O)=O` [Compound 1, 6-Chloro-4-hydroxy-2-methyl-N-(2-thiazolyl)-2H-thieno[2,3-e]-1,2-thiazine-3-carboxamide 1,1-dioxide] were, in that order, 17 nM and over 10000 nM.
`CN1C(C(=O)Nc2nc(-c3ccc(-c4ccc(F)cc4)o3)cs2)=C(O)c2sc(Cl)cc2S1(=O)=O` [Compound 6, 6-Chloro-N-{4-[5-(4-fluorophenyl)-2-furanyl]-2-thiazolyl}-4-hydroxy-2-methyl-2H-thieno[2,3-e]-1,2-thiazine-3-carboxamide 1,1-dioxide]: the IC50 in the assay on cyclooxygenase came to 3600 nM; at 5-lipoxygenase it was 580 nM.
The like results for `CN1C(C(=O)Nc2nc(-c3ccc(Oc4ccc(F)cc4)o3)cs2)=C(O)c2sc(-c3ccco3)cc2S1(=O)=O` [Compound 5, N-{4[5-(4-Fluorophenoxy)-2-furanyl]-2-thiazolyl}-6-(2-furanyl)-4-hydroxy-2-methyl-2H-thieno[2,3-]-1,2-thiazine-3-carboxamide 1,1-dioxide] were, in that order, 270 nM and 660 nM.
The like results for `CN1C(C(=O)Nc2ccccn2)=C(O)c2sc(-c3ccco3)cc2S1(=O)=O` [Compound 16, 6-(2-Furyl)-4-hydroxy-2-methyl-N-(2-pyridinyl)-2H-thieno[2,3-e]-1,2-thiazine-3-carboxamide 1,1-dioxide] were, in that order, 9.6 nM and over 10000 nM.
Take `CN1C(C(=O)Nc2nc(-c3ccccc3)cs2)=C(O)c2sc(Cl)cc2S1(=O)=O` [Compound 2, 6-Chloro-4-hydroxy-2-methyl-N-(4phenyl-2-thiazolyl)-2H-thieno[2,3-e]-1,2-thiazine-3-carboxamide 1,1-dioxide]: the IC50 with cyclooxygenase is 27 nM; on 5-lipoxygenase it was over 10000 nM.
The like results for `CN1C(C(=O)Nc2nc(-c3cc4ccccc4s3)co2)=C(O)c2sc(Cl)cc2S1(=O)=O` [Compound 12, N-[4-(2-Benzo[b]thienyl)-2-oxazolyl]-6-chloro-4-hydroxy-2-methyl-2H-thieno[2,3e]-thiazine-3-carboxamide 1,1-dioxide] were, in that order, 190 nM and 2700 nM.
As to `CN1C(C(=O)Nc2cccc(-c3cc4ccccc4o3)n2)=C(O)c2sc(-c3cccs3)cc2S1(=O)=O` [Compound 18, N-[6-(2-Benzo[b]furyl)-2-pyridinyl]-4-hydroxy-2-methyl-6-(2-thienyl)-2H-thieno[2,3-e]-1,2-thiazine-3-carboxamide 1,1-dioxide], the IC50 was determined as 68 nM in the assay with cyclooxygenase and 1300 nM at 5-lipoxygenase.
In the same order, the values of `CN1C(C(=O)Nc2ccccn2)=C(O)c2sc(-c3ccccc3)cc2S1(=O)=O` [Compound 14, 4-Hydroxy-2-methyl-6-phenyl-N-(2-pyridinyl)-2H-thieno-[2,3-e]-1,2-thiazine-3-carboxamide 1,1-dioxide] are 38 nM and over 10000 nM.
As for `CN1C(C(=O)Nc2nc(-c3ccc(-c4ccc(F)cc4)o3)cs2)=C(O)c2sc(-c3ccco3)cc2S1(=O)=O` [Compound 7, N-{4-[5-(4-Fluorophenyl)-2-furanyl]-2-thiazolyl}-6-(2-furanyl)-4-hydroxy-2-methyl-2H-thieno[2,3-e]-1,2-thiazine-3-carboxmide 1,1-dioxide], the values for the 50% inhibitory concentration (IC50) in the assay on cyclooxygenase and on 5-lipoxygenase were 1600 nM and 730 nM, respectively.
The like results for `CN1C(C(=O)Nc2nc(-c3cc4ccccc4o3)cs2)=C(O)c2sc(-c3ccco3)cc2S1(=O)=O` [Compound 9, N-[4-(2-Benzo[b]furanyl)-2-thiazolyl]-6-(2-furanyl)-4-hydroxy-2-methyl-2H-thieno[2,3-e]-1,2-thiazine-3-carboxamide 1,1-dioxide] were, in that order, 39 nM and 1600 nM.
In the same order, the values of `CN1C(C(=O)Nc2nc(-c3cc4ccccc4o3)cs2)=C(O)c2sc(Cl)cc2S1(=O)=O` [Compound 8, N-[4-(2-Benzo[b]furanyl)-2-thiazolyl]-6-chloro-4-hydroxy-2-methyl-2H-thieno[2,3-e]-1,2-thiazine-3-carboxamide 1,1-dioxide] are 100 nM and 2200 nM.
Regarding `CN1C(C(=O)Nc2ccccn2)=C(O)c2sc(-c3cccs3)cc2S1(=O)=O` [Compound 15, 4-Hydroxy-2-methyl-N-(2-pyridinyl)-6-(2-thienyl)-2H-thieno[2,3-e]-1,2-thiazine-3-carboxamide 1,1-dioxide], the IC50 in the assay on cyclooxygenase is 3.5 nM; at 5-lipoxygenase, over 10000 nM.
Regarding `CN1C(C(=O)Nc2cccc(-c3cc4ccccc4o3)n2)=C(O)c2sc(-c3ccccc3)cc2S1(=O)=O` [Compound 17, N-[6-(2-Benzo[b]furyl)-2-pyridinyl]-4-hydroxy-2-methyl-6-phenyl-2H-thieno[2,3-e]-1,2-thiazine-3-carboxamide 1,1-dioxide], the IC50 in the assay with cyclooxygenase turned out to be 190 nM; at 5-lipoxygenase, 1300 nM.
As to `CN1C(C(=O)Nc2nc(-c3cc4ccccc4o3)co2)=C(O)c2sc(-c3ccco3)cc2S1(=O)=O` [Compound 11], the IC50 with cyclooxygenase amounted to 200 nM; at 5-lipoxygenase, 2100 nM.
In the same order, the values of `CN1C(C(=O)Nc2cccc(-c3cc4ccccc4o3)n2)=C(O)c2sc(-c3ccco3)cc2S1(=O)=O` [Compound 19, N-[6-(2-Benzo[b]furyl)-2-pyridinyl]-6-(2-furyl)-4-hydroxy-2-methyl-2H-thieno[2,3e]-1,2-thiazine-3-carboxamide 1,1-dioxide] are 39 nM and 1400 nM.
In the same order, the values of `CN1C(C(=O)Nc2nc(-c3ccccc3)cs2)=C(O)c2sc(-c3ccco3)cc2S1(=O)=O` [Compound 3, 6-(2-Furyl)-4-hydroxy-2-methyl-N-(4-phenyl-2thiazolyl)-2H-thieno[2,3-e]-1,2-thiazine-3-carboxamide 1,1-dioxide] are 17 nM and 5200 nM.
